In patent publication US20260250290A1 (BRISTOL-MYERS SQUIBB COMPANY, priority 2023, published 2026):
Where a name gives a salt, the structure may show the parent alone.

molecular target: T1, full length SGK1 (Homo sapiens, UniProt O00141); experiment: SGK1 inhibition Assay A (Caliper LabChip electrophoretic separation of fluorescent peptide substrate and phosphorylated product); assay type: biochemical; conditions: Assay A; 20 μM ATP, 40 min incubation; read-out: SGK1 IC50
T1 construct: 125 μM full length SGK1 (Life Technologies Part #PR7358A); purchased Life Technologies PR7358A
T1 sequence (O00141 1-431): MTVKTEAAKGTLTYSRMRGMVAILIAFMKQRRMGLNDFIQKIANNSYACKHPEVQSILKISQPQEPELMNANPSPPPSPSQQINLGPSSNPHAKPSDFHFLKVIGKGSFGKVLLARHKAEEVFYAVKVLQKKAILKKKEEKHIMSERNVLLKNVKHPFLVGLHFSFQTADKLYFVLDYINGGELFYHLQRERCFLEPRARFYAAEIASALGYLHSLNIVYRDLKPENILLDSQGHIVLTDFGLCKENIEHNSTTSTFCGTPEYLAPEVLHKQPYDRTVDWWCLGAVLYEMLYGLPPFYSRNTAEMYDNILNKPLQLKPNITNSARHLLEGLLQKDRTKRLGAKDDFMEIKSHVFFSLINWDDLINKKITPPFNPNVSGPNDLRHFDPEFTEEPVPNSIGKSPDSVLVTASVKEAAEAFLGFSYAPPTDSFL

IC50 [nM]	SMILES
2	Cc1cc(N2CCOCC2)c(C(=O)N[C@@H]2CCCN(c3cc(-c4ccnc(F)c4)n4ncnc(N)c34)C2)s1 [Example 198, (R)—N-(1-(4-amino-7-(2-fluoropyridin-4-yl)pyrrolo[2,1-f][1,2,4]triazin-5-yl)piperidin-3-yl)-5-methyl-3-morpholinothiophene-2-carboxamide, 2 TFA]
4	CS(=O)(=O)N1CC=C(c2cc(N3CCC[C@@H](NC(=O)c4ccns4)C3)c3c(N)ncnn23)C1 [Example 112, (R)—N-(1-(4-amino-7-(1-(methylsulfonyl)-2,5-dihydro-1H-pyrrol-3-yl)pyrrolo[2,1-f][1,2,4]triazin-5-yl)piperidin-3-yl)isothiazole-5-carboxamide, TFA]
62	Cc1nn(C)cc1-c1cc(N2CCC[C@@H](NC(=O)c3ccc(Cl)s3)C2)c2c(N)ncnn12 [Example 217, (R)-N-(1-(4-amino-7-(1,3-dimethyl-1H-pyrazol-4-yl)pyrrolo[2,1-f][1,2,4]triazin-5-yl)piperidin-3-yl)-5-chlorothiophene-2-carboxamide]
6	COc1cc(-c2cc(N3CCC[C@@H](NC(=O)c4ccc(Cl)s4)C3)c3c(N)ncnn23)ccn1 [Example 215, (R)-N-(1-(4-amino-7-(2-methoxypyridin-4-yl)pyrrolo[2,1-f][1,2,4]triazin-5-yl)piperidin-3-yl)-5-chlorothiophene-2-carboxamide, TFA]
8	CN1CCC(COc2cc(Cl)sc2C(=O)N[C@@H]2CCCN(c3cc(-c4cncnc4)n4ncnc(N)c34)C2)CC1 [Example 643, (R)-N-(1-(4-amino-7-(pyrimidin-5-yl)pyrrolo[2,1-f][1,2,4]triazin-5-y1)piperidin-3-y1)-5-chloro-3-((1-methylpiperidin-4-yl)methoxy)thiophene-2-carboxamide]
19	Cc1ccc(C(=O)N[C@@H]2CCCN(c3cc(-c4ccc(S(C)(=O)=O)cc4)n4ncnc(N)c34)C2)cc1C [Example 84, (R)-N-(1-(4-amino-7-(4-(methylsulfonyl)phenyl)pyrrolo[2,1-f][1,2,4]triazin-5-yl)piperidin-3-yl)-3,4-dimethylbenzamide, TFA]
61	CC(=O)N1CC=C(c2cc(N3CCC[C@@H](NC(=O)c4cccc(F)n4)C3)c3c(N)ncnn23)C1 [Example 726, :(R)-N-(1-(7-(1-acetyl-2,5-dihydro-1H-pyrrol-3-yl)-4-aminopyrrolo[2,1-f][1,2,4]triazin-5-yl)piperidin-3-yl)-6-fluoropicolinamide]
79	CS(=O)(=O)c1ccc(-c2cc(N3CCC[C@@H](NC(=O)c4cc[nH]c(=O)c4)C3)c3c(N)ncnn23)cc1 [Example 43, (R)-N-(1-(4-amino-7-(4-(methylsulfonyl)phenyl)pyrrolo[2,1-f][1,2,4]triazin-5-yl)piperidin-3-yl)-2-oxo-1,2-d1Hydropyridine-4-carboxamide, TFA]
12	Nc1ncnn2c(C3=CCN(C(=O)c4ccccn4)C3)cc(N3CCC[C@@H](NC(=O)c4ccc(Cl)s4)C3)c12 [Example 900, (R)-N-(1-(4-amino-7-(1-picolinoy1-2,5-dihydro-1H-pyrrol-3-yl)pyrrolo[2,1-f][1,2,4]triazin-5-y1)piperidin-3-y1)-5-chlorothiophene-2-carboxamide]
8	Nc1ncnn2c(C3=CCN(C(=O)c4ccns4)C3)cc(N3CCC[C@@H](NC(=O)c4ccc(Cl)s4)C3)c12 [Example 885, (R)-N-(1-(4-amino-7-(1-(isothiazole-5-carbonyl)-2,5-dihydro-1H-pyrrol-3-yl)pyrrolo[2,1-f][1,2,4]triazin-5-y1)piperidin-3-y1)-5-chlorothiophene-2-carboxamide]

Continued, molecule first:

SMILES	IC50 [nM]
CC(=O)N1CC=C(c2cc(N3CCC[C@@H](NC(=O)c4sc(Cl)cc4OCCN(C)C)C3)c3c(N)ncnn23)CC1 [Example 180, (R)—N-(1-(7-(1-acetyl-1,2,3,6-tetrahydropyridin-4-yl)-4-aminopyrrolo[2,1-f][1,2,4]triazin-5-yl)piperidin-3-yl)-5-chloro-3-(2-(dimethylamino)ethoxy)thiophene-2-carboxamide 2 TFA]	47
CS(=O)(=O)c1ccc(-c2cc(N3CCC[C@@H](NC(=O)c4cnn(CC(F)(F)F)c4)C3)c3c(N)ncnn23)cc1 [Example 76, (R)-N-(1-(4-amino-7-(4-(methylsulfonyl)phenyl)pyrrolo[2,1-f][1,2,4]triazin-5-yl)piperidin-3-yl)-1-(2,2,2-trifluoroethyl)-1H-pyrazole-4-carboxamide]	53
Nc1ncnn2c(-c3ccc(=O)n(CC(F)F)c3)cc(N3CCC[C@@H](NC(=O)c4cc5ccccc5[nH]4)C3)c12 [Example 503, (R)-N-(1-(4-amino-7-(1-(2,2-difluoroethyl)-6-oxo-1,6-dihydropyridin-3-yl)pyrrolo[2,1-f][1,2,4]triazin-5-yl)piperidin-3-yl)-1H-indole-2-carboxamide]	9
COC(=O)N1CC=C(c2cc(N3CCC[C@@H](NC(=O)c4sc(Cl)cc4OCCN4CCC(F)(F)CC4)C3)c3c(N)ncnn23)C1 [Example 284, methyl (R)-3-(4-amino-5-(3-(5-chloro-3-(2-(4,4-difluoropiperidin-1-yl)ethoxy)thiophene-2-carboxamido)piperidin-1-yl)pyrrolo[2,1-f][1,2,4]triazin-7-yl)-2,5-dihydro-1H-pyrrole-1-carboxylate]	18
CC(=O)N1CC=C(c2cc(N3CCC[C@@H](NC(=O)N4CC[C@H](O)C4)C3)c3c(N)ncnn23)C1 [Example 875, (S)-N-((R)-1-(7-(1-acetyl-2,5-dihydro-1H-pyrrol-3-yl)-4-aminopyrrolo[2,1-f][1,2,4]triazin-5-yl)piperidin-3-yl)-3-hydroxypyrrolidine-1-carboxamide]	477
Cc1cc(-c2cc(N3CCC[C@@H](NC(=O)c4sc(Cl)cc4OCCN(C)C)C3)c3c(N)ncnn23)cn(C(C)C)c1=O [Example 693, (R)—N-(1-(4-amino-7-(1-isopropyl-5-methyl-6-oxo-1,6-dihydropyridin-3-yl)pyrrolo[2,1-f][1,2,4]triazin-5-yl)piperidin-3-yl)-5-chloro-3-(2-(dimethylamino)ethoxy)thiophene-2-carboxamide]	69
N#Cc1ccc(-c2cc(N3CCC[C@@H](NC(=O)c4sc(C(F)F)cc4C4CCNCC4)C3)c3c(N)ncnn23)cn1 [Example 395, (R)-N-(1-(4-amino-7-(6-cyanopyridin-3-yl)pyrrolo[2,1-f][1,2,4]triazin-5-yl)piperidin-3-yl)-5-(difluoromethyl)-3-(piperidin-4-yl)thiophene-2-carboxamide]	210
COC(=O)N1CC=C(c2cc(N3CCC[C@@H](NC(=O)c4[nH]c5ccccc5c4OCCN(C)C)C3)c3c(N)ncnn23)C1 [Example 365, Methyl (R)-3-(4-amino-5-(3-(3-(2-(dimethylamino)ethoxy)-1H-indole-2-carboxamido)piperidin-1-yl)pyrrolo [2,1-f][1,2,4]triazin-7-yl)-2,5-dihydro-1H-pyrrole-1-carboxylate]	21
CS(=O)(=O)c1ccc(-c2cc(N3CCC[C@@H](NC(=O)CCc4ccccc4)C3)c3c(N)ncnn23)cc1 [Example 15, (R)-N-(1-(4-amino-7-(4-(methylsulfonyl)phenyl)pyrrolo[2,1-f][1,2,4]triazin-5-yl)piperidin-3-yl)-3-phenylpropanamide, TFA]	499
CC(=O)N1CC=C(c2cc(N3CCC[C@@H](NC(=O)c4cccc(CN5CCN(C)CC5)n4)C3)c3c(N)ncnn23)C1 [Example 727, (R)-N-(1-(7-(1-acetyl-2,5-dihydro-1H-pyrrol-3-yl)-4-aminopyrrolo[2,1-f][1,2,4]triazin-5-yl)piperidin-3-yl)-6-((4-methylpiperazin-1-yl)methyl)picolinamide]	161
CC(=O)N1CC=C(c2cc(N3CCC[C@@H](NC(=O)c4sc(Cl)cc4OC4CCN(CC(C)(C)O)CC4)C3)c3c(N)ncnn23)C1 [Example 618, (R)—N-(1-(7-(1-acetyl-2,5-dihydro-1H-pyrrol-3-yl)-4-aminopyrrolo[2,1-f][1,2,4]triazin-5-yl)piperidin-3-yl)-5-chloro-3-((1-(2-hydroxy-2-methylpropyl)piperidin-4-yl)oxy)thiophene-2-carboxamide]	9
NC(=O)c1ccc(-c2cc(N3CCC[C@@H](NC(=O)c4sc(Cl)cc4OC4CN(CC(F)F)C4)C3)c3c(N)ncnn23)cc1F [Example 386, (R)-N-(1-(4-amino-7-(4-carbamoyl-3-fluorophenyl)pyrrolo[2,1-f][1,2,4]triazin-5-yl)piperidin-3-vl)-5-chloro-3-((1-(2,2-difluoroethyl)azetidin-3-yl)oxy)thiophene-2-carboxamide]	6
Cc1cc(-c2cc(N3CCC[C@@H](NC(=O)c4sc(Cl)cc4OCCN(C)C)C3)c3c(N)ncnn23)cn(CC(C)C)c1=O [Example 694, (R)—N-(1-(4-amino-7-(1-isobutyl-5-methyl-6-oxo-1,6-dihydropyridin-3-yl)pyrrolo[2,1-f][1,2,4]triazin-5-yl)piperidin-3-yl)-5-chloro-3-(2-(dimethylamino)ethoxy)thiophene-2-carboxamide]	103
CN(C)CCOc1cc(Cl)sc1C(=O)N[C@@H]1CCCN(c2cc(C3=CCN(C(=O)C4CCC4)CC3)n3ncnc(N)c23)C1 [Example 183, (R)-N-(1-(4-amino-7-(1-(cyclobutanecarbonyl)-1,2,3,6-tetrahydropyridin-4-yl)pyrrolo[2,1-f][1,2,4]triazin-5-yl)piperidin-3-yl)-5-chloro-3-(2-(dimethylamino)ethoxy) thiophene-2-carboxamide, 2 TFA]	42
